Results on twelve molecules are retold here after ChEMBL document CHEMBL1201862, “PubChem BioAssay data set” (2004).

Common to all, as to test: DTP human tumour cell line panel, 48 h
The subject of experiment [1] is MOLT-4.
For experiment [2], the system named is OVCAR-3.
Experiment [3] has as its system MDA-N.
Experiment [4] concerns SF-268.
Experiment [5] has as its system PC-3.
In experiment [6] the test system is EKVX.
For experiment [7], the system named is HCC 2998.
The subject of experiment [8] is OVCAR-4.
The test system of experiment [9] is HOP-62.
Experiment [10] deals with NCI-H522.
For experiment [11], the system named is MDA-MB-435.
In experiment [12] the test system is TK-10.
Experiment [13] has as its system SN12C.
The test system of experiment [14] is MCF7.
Experiment [15] concerns A549.
In experiment [16] the test system is NCI-H460.
Experiment [17] relates to DU-145.
The test system of experiment [18] is OVCAR-5.
Experiment [19] deals with SR.

Broadly, the GI50 is the concentration that inhibits growth by half.

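Where inhibition never reached the appropriate level, the endpoint shown equals the highest concentration tested. Otherwise, values were interpolated linearly from a five-concentration, 48-hour dose response in 96-well plates. At the GI50, growth is halved.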 Activity calls are given as the source filed them. Cut-off read from the data, not from the text of the source: active = GI50 up to about 1.1 µM and inactive = higher. Bounds are passed on as bounds.

For the molecule `O=C1CC(c2cccc(F)c2)Nc2cc3c(cc21)OCO3` (stereo not given), the GI50 was < 0.01 µM (active) in experiment [1]; 0.0521 µM (active) in experiment [2]; 0.0113 µM (active) in experiment [3]; 0.0914 µM (active) in experiment [4]; 0.0301 µM (active) in [5]; < 0.01 µM (active) in experiment [6]. Besides, the GI50 is 0.0593 µM (active) in [7]; 1.8 µM (inactive) in experiment [8]; 7.38 µM (inactive) in experiment [9]; 0.0208 µM (active) in experiment [10]; 0.0136 µM (active) in experiment [11]; 1.13 µM (inactive) in experiment [12]. For the same molecule, the concentration for 50% growth inhibition (GI50) in experiment [13] was 0.0509 µM (active); in experiment [14] it was 0.0472 µM (active); in experiment [15], 0.0363 µM (active); in [16] it was 0.0418 µM (active); in experiment [17], 0.0385 µM (active); in experiment [18], 0.054 µM (active).

As for `CSc1cc(Cl)c(C)cc1S(=O)(=O)NC(=O)NNc1ccc(Cl)cc1`, the GI50 in experiment [1] is 46.6 µM (inactive); in experiment [2] it was > 100 µM (inactive); in [3], > 100 µM (inactive); in experiment [19], 70 µM (inactive); in [4] it was > 100 µM (inactive); in experiment [5] it was 80.5 µM (inactive). In addition, the GI50 in experiment [6] was > 100 µM (inactive); in experiment [7], 36.2 µM (inactive); in [8], > 100 µM (inactive); in [9], > 100 µM (inactive); in experiment [10] it was 70.3 µM (inactive); in [11], > 100 µM (inactive). Also, the GI50 in [13], in experiment [14], in [15], in experiment [16], in [17] and in [18] was > 100 µM (inactive) each time.

`CC1C(c2ccc(F)cc2)c2cc3c(cc2OC1N1CCCC1)OCO3` (stereo not given): the GI50 in experiment [2] is 43.7 µM (inactive); in experiment [3] it was 66.4 µM (inactive); in experiment [19], 35.2 µM (inactive); in experiment [4], 36.8 µM (inactive); in experiment [5] it was 44.2 µM (inactive); in [6], 34.1 µM (inactive). Besides, the GI50 in experiment [7] is 38.6 µM (inactive); in experiment [9], 46.3 µM (inactive); in experiment [10], 29 µM (inactive); in experiment [11], 44.6 µM (inactive); in [12] it was 37.2 µM (inactive); in [13], 80.4 µM (inactive). The GI50 in experiment [14] is 45.4 µM (inactive); in experiment [15], 34.3 µM (inactive); in experiment [17] it was 61.9 µM (inactive); in experiment [18] it was 47.5 µM (inactive).

Take `C[N+]1(C)CCOC(O)(c2ccccc2)C1` (stereo not given): the GI50 in experiment [1], in experiment [2], in experiment [3], in experiment [19], in [4] and in experiment [5] was > 100 µM (inactive) throughout. Further, the GI50 in experiment [6], in experiment [8], in [9], in experiment [10], in experiment [11] and in experiment [12] was > 100 µM (inactive) in each case. The GI50 in experiment [13], in experiment [14], in experiment [15], in experiment [16], in [17] and in experiment [18] was > 100 µM (inactive) throughout.

For the molecule `NC1(C(=O)O)CCCC1C(=O)O` (stereo not given), the GI50 in experiment [1], in experiment [2], in experiment [3], in experiment [19], in experiment [4] and in experiment [5] was > 100 µM (inactive) in each case. Also, the GI50 in [6], in experiment [8], in [9], in [10], in [11] and in [12] was > 100 µM (inactive) each time. In addition, the GI50 in experiment [13], in experiment [14], in [15], in experiment [16], in experiment [17] and in [18] was > 100 µM (inactive) throughout.

For the molecule `O=P1(Oc2ccccc2)NCc2ncccc2O1` (stereo not given), the GI50 in experiment [1], in [2], in experiment [3], in experiment [19], in experiment [5] and in experiment [6] was > 100 µM (inactive) in each case. Further, the GI50 in experiment [7], in experiment [8], in experiment [9], in experiment [11], in [13] and in experiment [14] was > 100 µM (inactive) throughout. Besides, the GI50 in experiment [15], in experiment [16], in experiment [17] and in experiment [18] was > 100 µM (inactive) each time.

As for `CC1(C)CC(=O)c2c(N)n[nH]c2C1`, the GI50 in experiment [1], in [2], in experiment [3], in [19], in [5] and in [6] was > 100 µM (inactive) throughout. For the same molecule, the GI50 in [7], in experiment [8], in experiment [9], in experiment [10], in experiment [11] and in [13] was > 100 µM (inactive) throughout. Moreover, the GI50 in [14], in [15], in experiment [16], in experiment [17] and in experiment [18] was > 100 µM (inactive) throughout.

For the molecule `COc1ccc(C)cc1NC(=S)C#N`, the GI50 in experiment [2] is 27.1 µM (inactive); in experiment [3], > 100 µM (inactive); in experiment [4], 27.5 µM (inactive); in [5], 26.4 µM (inactive); in experiment [7] it was 44.6 µM (inactive); in [9], 29.6 µM (inactive). In addition, the GI50 was > 100 µM (inactive) in experiment [11]; 31.9 µM (inactive) in [12]; > 100 µM (inactive) in experiment [13]; 32.2 µM (inactive) in [14]; > 100 µM (inactive) in [15]; > 100 µM (inactive) in [17]. Besides, in experiment [18], the GI50 is 29.6 µM (inactive).

With `CO/N=C(\C(=O)N(C)n1cnnc1)c1csc(NC(c2ccccc2)(c2ccccc2)c2ccccc2)n1`, the GI50 in experiment [1], in experiment [2], in [3], in [19], in experiment [4] and in experiment [5] was > 10 µM (inactive) throughout. The GI50 in [6], in experiment [7], in [8], in experiment [9], in experiment [10] and in experiment [12] was > 10 µM (inactive) throughout. For the same molecule, the GI50 in experiment [13], in experiment [14], in experiment [15], in [16], in experiment [17] and in experiment [18] was > 10 µM (inactive) throughout.

Regarding `CC1CN=C(N(C(=O)Nc2ccc(Cl)cc2)c2cccc(Cl)c2)S1` (stereo not given), the GI50 was > 10 µM (inactive) in experiment [1]; 40.6 µM (inactive) in [2]; 24.9 µM (inactive) in experiment [3]; 29.3 µM (inactive) in experiment [19]; 54.2 µM (inactive) in [4]; 25.2 µM (inactive) in experiment [5]. In addition, the GI50 was 31.2 µM (inactive) in [6]; 20.9 µM (inactive) in [7]; 46.3 µM (inactive) in [8]; > 100 µM (inactive) in [9]; 15 µM (inactive) in experiment [12]; 15.7 µM (inactive) in [13]. Further, the GI50 in [14] is 34.7 µM (inactive); in experiment [15] it was 25.6 µM (inactive); in [16], 27.1 µM (inactive); in [17], 46.8 µM (inactive); in [18], > 100 µM (inactive).

Consider `COc1cc2c(cc1OC)C1=Cc3ccc(OC)c(OC)c3C(C#N)N1CC2` (stereo not given), for which the GI50 in experiment [1] is 33.1 µM (inactive); in experiment [2], 34.2 µM (inactive); in [3], 33.7 µM (inactive); in [4], 29.7 µM (inactive); in experiment [5], 32.4 µM (inactive); in [6], 96.8 µM (inactive). In addition, the GI50 is 18.5 µM (inactive) in experiment [7]; 67 µM (inactive) in [8]; 42.4 µM (inactive) in experiment [9]; 30 µM (inactive) in [10]; 25.9 µM (inactive) in experiment [11]; > 100 µM (inactive) in experiment [12]. For the same molecule, the GI50 in experiment [13] is 35.2 µM (inactive); in experiment [14], 29.7 µM (inactive); in experiment [15], 56.4 µM (inactive); in experiment [16], 31.7 µM (inactive); in experiment [17], 39.7 µM (inactive); in experiment [18] it was > 100 µM (inactive).

In the case of `NS(=O)(=O)c1nnc(NC(=O)CCC(=O)O)s1`, the GI50 in [1], in [2], in [3], in [19], in [4] and in [6] was > 100 µM (inactive) throughout. Moreover, the GI50 in [7], in experiment [8], in [9], in experiment [10], in experiment [11] and in experiment [12] was > 100 µM (inactive) in each case. In addition, the GI50 in experiment [13], in experiment [14], in [15], in [16], in experiment [17] and in experiment [18] was > 100 µM (inactive) in each case.
